Data taken from patent publication EP0063525A1, “Dibenzazepine tetracyclic derivatives, process for their preparation and pharmaceutical compositions containing them” (CENTRE NATIONAL DE LA RECHERCHE SCIENTIFIQUE (CNRS), priority 1981, dated 1982).
Read-outs that look alike come from different tables or passages of the source.

Legend:
souris femelles = test: acute toxicity in the mouse, intraperitoneal; type: in vivo; details: voie intrapéritonéale, dead mice of the group
Excerpt: (§1) Les produits ont été administrés par voie intrapéritonéale à des souris femelles dont le poids variait de 18 à 30 g.
(§2) Les animaux injectés ont été maintenus dans une salle thermostatée, nourris et abreuvés à volonté.
(§3) La mortalité a été relevée à 1 heure, 4 heures, 24 heures et 48 heures.

[1] = acute toxicity in the mouse, intraperitoneal; type: in vivo, Souris; details: mouse, in vivo, ip, voie intrapéritonéale; for LD50 at 48 h: souris femelles, read-out: DL 50; for mortality at 48 h: read-out: Mortalité %
Excerpt: as §1, §2, §3

Souris [2] = test: tetrabenazine ptosis; type: in vivo; details: for Ptosis 30 minutes / Ptosis 60 minutes / Ptosis 90 minutes / Ptosis 120 minutes: score 0-4 per eye
Experimental: (§4) Ce test permet de révéler également une activité antidépressive avec l'avantage d'une lecture plus rapide qu'avec la réserpine.
(§5) Les souris sont réparties par lots de 5.
Le ptosis est noté avant l'injection de tétrabénazine, 30 minutes, 60 minutes, 90 minutes et 120 minutes après.
On a adopté la notation suivante : • - 0 : pour un oeil ouvert, • - 1 : pour un oeil fermé au quart, • - 2 : pour un oeil fermé à moitié, • - 3 : pour un oeil fermé aux trois-quarts, • - 4 : pour un oeil fermé complètement.
(§6) Le lot témoin comprend 20 souris.

Souris [3] = test: antireserpine activity: reserpine hypothermia; type: in vivo; details: réserpine 5 mg/kg i.p. 17 h before
Experimental: On note ensuite les températures témoins (réserpine), puis les températures 1, 2, 3 et 4 heures après l'administration des produits étudiés.
Les animaux sont répartis en lots de 4 animaux et reçoivent par voie intrapéritonéale la réserpine à une dose de 5 mg/kg. 17 heures après cette injection, on mesure la température corporelle de l'animal à l'aide d'une sonde thermocouple introduite dans le rectum; chaque lot reçoit ensuite la substance par voie intrapéritonéale. Le lot témoin reçoit la même quantité de solvant et par la même voie. La température corporelle est ensuite mesurée toutes les heures pendant 4 heures.
Les résultats sont rassemblés dans un tableau récapitulatif-où sont indiqués : • - la température moyenne pour chaque lot relevée 17 heures après l'injection de la réserpine, • - la moyenne des variations de température pour chaque lot relevées 1,2, 3 et 4 heures après l'injection de la substance étudiée, • - la somme des variations de températures pendant 4 heures, • - le pourcentage d'augmentation de la température pour chaque produit par rapport aux témoins.

Souris [4] = test: tetrabenazine hypothermia; type: in vivo
Experimental: as §4
Les produits sont injectés 30 minutes avant l'administration de tétrabénazine.
Les températures sont relevées aux temps : 0, 30 minutes, 60 minutes, 90 minutes et 120 minutes.
as §5
Les températures sont relevées avant l'injection de tétrabénazine, 30 minutes, 60 minutes, 90 minutes et 120 minutes après.
as §6

[5] = product i.p. 100 mg/kg 30 min before tétrabénazine 32 mg/kg i.v.
[6] = product i.p. 200 mg/kg 30 min before tétrabénazine 32 mg/kg i.v.
[7] = ip, 2 h, ptosis, product i.p. 50 mg/kg 30 min before tétrabénazine 32 mg/kg i.v., read-out: % de protection
[8] = product i.p. 50 mg/kg 30 min before tétrabénazine 32 mg/kg i.v.
[9] = ip, 4 h, product i.p. 50 mg/kg, read-out: % d'augmentation par rapport aux témoins
[10] = ip, 2 h, hypothermie, product i.p. 50 mg/kg 30 min before tétrabénazine 32 mg/kg i.v., read-out: % de protection

Structure (SMILES): CN(C)CCN1c2ccccc2C2C(c3ccccc3)=NN(c3ccccc3)C2c2ccccc21 (stereo not drawn) [compound 7, (β-diméthylaminoéthyl)-8 diphényl-1,3 tétrahydro-1,3a, 8, 12b (dibenzo [b,f]pyrazolo [3,4-d]) azépine]
- Mortalité en 1 heure (souris femelles; 250 mg/kg): 0
- Mortalité en 48 h. (souris femelles; 250 mg/kg): 0
- Mortalité en 1 heure (souris femelles; 500 mg/kg): 0
- Mortalité en 48 h. (souris femelles; 500 mg/kg): 0
- Mortalité en 1 heure (souris femelles; 900 mg/kg): 1
- Mortalité en 48 h. (souris femelles; 900 mg/kg): 1
- LD50 at 48 h [1]: > 500 mg/kg
- mortality at 48 h ([1]; 250 mg/kg): 0%
- mortality at 48 h ([1]; 500 mg/kg): 0%
- inhibition in vivo at 100 mg/kg (Souris [2]; ip, 2 h, ptosis, product i.p. 100 mg/kg 30 min before tétrabénazine 32 mg/kg i.v., read-out: % de protection): 14%
- Ptosis Total (Souris [2]; [5]): 25,8
- Ptosis 30 minutes (Souris [2]; [5]): 3,8
- Ptosis 60 minutes (Souris [2]; [5]): 7
- Ptosis 90 minutes (Souris [2]; [5]): 7
- Ptosis 120 minutes (Souris [2]; [5]): 8
- change in vivo at 100 mg/kg (Souris [3]; ip, 4 h, product i.p. 100 mg/kg, read-out: % d'augmentation par rapport aux témoins): 125%
- variation de température T= 2h (Souris [3]; product i.p. 100 mg/kg): +1,1
- variation de température T=3h (Souris [3]; product i.p. 100 mg/kg): +0,7
- variation de température T=4h (Souris [3]; product i.p. 100 mg/kg): +0,1
- inhibition in vivo at 100 mg/kg (Souris [4]; ip, 2 h, hypothermie, product i.p. 100 mg/kg 30 min before tétrabénazine 32 mg/kg i.v., read-out: % de protection): 26%
- Température après tétrabénazine 30 minutes (Souris [4]; [5]): -3,2
- Température après tétrabénazine 60 minutes (Souris [4]; [5]): -1,3
- Température après tétrabénazine 90 minutes (Souris [4]; [5]): -1
- Température après tétrabénazine 120 minutes (Souris [4]; [5]): -0,8
- Température après tétrabénazine Total (Souris [4]; [5]): -6,3

Structure (SMILES): CN(C)CCN1c2ccccc2-c2c(-c3ccccc3)nn(-c3ccccc3)c2-c2ccccc21 [compound 13]
- Mortalité en 1 heure (souris femelles; 50 mg/kg): 0
- Mortalité en 48 h. (souris femelles; 50 mg/kg): 0
- Mortalité en 1 heure (souris femelles; 100 mg/kg): 0
- Mortalité en 48 h. (souris femelles; 100 mg/kg): 0
- Mortalité en 1 heure (souris femelles; 250 mg/kg): 0
- Mortalité en 48 h. (souris femelles; 250 mg/kg): 0
- Mortalité en 1 heure (souris femelles; 400 mg/kg): 3
- Mortalité en 48 heures (souris femelles; 400 mg/kg): 3
- Mortalité en 1 heure (souris femelles; 750 mg/kg): 2
- Mortalité en 48 h. (souris femelles; 750 mg/kg): 5
- LD50 at 48 h [1]: 350 mg/kg
- mortality at 48 h ([1]; 50 mg/kg): 0%
- mortality at 48 h ([1]; 100 mg/kg): 0%
- mortality at 48 h ([1]; 250 mg/kg): 0%
- mortality at 48 h ([1]; 400 mg/kg): 60%
- mortality at 48 h ([1]; 750 mg/kg): 100%
- inhibition in vivo at 200 mg/kg (Souris [2]; ip, 2 h, ptosis, product i.p. 200 mg/kg 30 min before tétrabénazine 32 mg/kg i.v., read-out: % de protection): 14%
- Ptosis Total (Souris [2]; [6]): 25,9
- Ptosis 30 minutes (Souris [2]; [6]): 4
- Ptosis 60 minutes (Souris [2]; [6]): 6,8
- Ptosis 90 minutes (Souris [2]; [6]): 7,6
- Ptosis 120 minutes (Souris [2]; [6]): 7,5
- change in vivo at 200 mg/kg (Souris [3]; ip, 4 h, product i.p. 200 mg/kg, read-out: % d'augmentation par rapport aux témoins): 70%
- variation de température T=1h (Souris [3]; product i.p. 200 mg/kg): +1,9
- variation de température T= 2h (Souris [3]; product i.p. 200 mg/kg): +1
- variation de température T=3h (Souris [3]; product i.p. 200 mg/kg): +0,5
- variation de température T=4h (Souris [3]; product i.p. 200 mg/kg): 0
- inhibition in vivo at 200 mg/kg (Souris [4]; ip, 2 h, hypothermie, product i.p. 200 mg/kg 30 min before tétrabénazine 32 mg/kg i.v., read-out: % de protection): 15%
- Température après tétrabénazine 30 minutes (Souris [4]; [6]): -3,4
- Température après tétrabénazine 60 minutes (Souris [4]; [6]): -1,9
- Température après tétrabénazine 90 minutes (Souris [4]; [6]): -1,1
- Température après tétrabénazine 120 minutes (Souris [4]; [6]): -0,9
- Température après tétrabénazine Total (Souris [4]; [6]): -7,3

Structure (SMILES): CN(C)CCCN1c2ccccc2-c2onc(-c3ccccc3)c2-c2ccccc21 [compound 18]
- Mortalité en 1 heure (souris femelles; 50 mg/kg): 0
- Mortalité en 48 h. (souris femelles; 50 mg/kg): 0
- Mortalité en 1 heure (souris femelles; 100 mg/kg): 0
- Mortalité en 48 h. (souris femelles; 100 mg/kg): 0
- Mortalité en 1 heure (souris femelles; 150 mg/kg): 0
- Mortalité en 48 h. (souris femelles; 150 mg/kg): 0
- Mortalité en 1 heure (souris femelles; 200 mg/kg): 5
- Mortalité en 48 h. (souris femelles; 200 mg/kg): 5
- Mortalité en 1 heure (souris femelles; 250 mg/kg): 4
- Mortalité en 48 h. (souris femelles; 250 mg/kg): 5
- LD50 at 48 h [1]: 225 mg/kg
- mortality at 48 h ([1]; 50 mg/kg): 0%
- mortality at 48 h ([1]; 100 mg/kg): 0%
- mortality at 48 h ([1]; 150 mg/kg): 0%
- mortality at 48 h ([1]; 200 mg/kg): 100%
- mortality at 48 h ([1]; 250 mg/kg): 100%
- inhibition in vivo at 50 mg/kg (Souris [2]; [7]): 24%
- Ptosis Total (Souris [2]; [8]): 23
- Ptosis 30 minutes (Souris [2]; [8]): 3,6
- Ptosis 60 minutes (Souris [2]; [8]): 5,8
- Ptosis 90 minutes (Souris [2]; [8]): 6,4
- Ptosis 120 minutes (Souris [2]; [8]): 7,2
- change in vivo at 50 mg/kg (Souris [3]; [9]): 25%
- change in vivo at 150 mg/kg (Souris [3]; ip, 4 h, product i.p. 150 mg/kg, read-out: % d'augmentation par rapport aux témoins): 175%
- inhibition in vivo at 50 mg/kg (Souris [4]; [10]): 8%
- Température après tétrabénazine 30 minutes (Souris [4]; [8]): -3,1
- Température après tétrabénazine 60 minutes (Souris [4]; [8]): -1,8
- Température après tétrabénazine 90 minutes (Souris [4]; [8]): -1,9
- Température après tétrabénazine 120 minutes (Souris [4]; [8]): -1,1
- Température après tétrabénazine Total (Souris [4]; [8]): -7,9

Structure (SMILES): CN(C)CCN1c2ccccc2C=Cc2ccccc21 [compound 20, (β-diméthylaminoéthyl)-5 dibenzo [b,f] 5H azépine, reference compound]
- Mortalité en 1 heure (souris femelles; 50 mg/kg): 0
- Mortalité en 48 h. (souris femelles; 50 mg/kg): 0
- Mortalité en 1 heure (souris femelles; 100 mg/kg): 3
- Mortalité en 48 h. (souris femelles; 100 mg/kg): 3
- Mortalité en 1 heure (souris femelles; 200 mg/kg): 5
- Mortalité en 48 h. (souris femelles; 200 mg/kg): 5
- LD50 at 48 h [1]: 75 mg/kg
- mortality at 48 h ([1]; 50 mg/kg): 0%
- mortality at 48 h ([1]; 100 mg/kg): 60%
- mortality at 48 h ([1]; 200 mg/kg): 100%
- inhibition in vivo at 50 mg/kg (Souris [2]; [7]): 60%
- Ptosis Total (Souris [2]; [8]): 12,2
- Ptosis 30 minutes (Souris [2]; [8]): 2,2
- Ptosis 60 minutes (Souris [2]; [8]): 3,4
- Ptosis 90 minutes (Souris [2]; [8]): 3,2
- Ptosis 120 minutes (Souris [2]; [8]): 3,6
- change in vivo at 50 mg/kg (Souris [3]; [9]): 440%
- Augmentation de température en 4 h (Souris [3]; product i.p. 50 mg/kg): +10,8
- variation de température T= 2h (Souris [3]; product i.p. 50 mg/kg): +2,7
- variation de température T=3h (Souris [3]; product i.p. 50 mg/kg): +2
- variation de température T=4h (Souris [3]; product i.p. 50 mg/kg): +1
- inhibition in vivo at 50 mg/kg (Souris [4]; [10]): 46%
- Température après tétrabénazine 30 minutes (Souris [4]; [8]): -3,1
- Température après tétrabénazine 60 minutes (Souris [4]; [8]): -0,2
- Température après tétrabénazine 90 minutes (Souris [4]; [8]): -0,3
- Température après tétrabénazine 120 minutes (Souris [4]; [8]): -1
- Température après tétrabénazine Total (Souris [4]; [8]): -4,6
